For four compounds, IC50 results are on record in ChEMBL document CHEMBL3259523, “Triazolo[4,5-d]pyrimidine Derivatives as Inhibitors of GCN2” (ACS Med Chem Lett, 2014).

Broadly, the IC50 is the concentration that inhibits the measured activity by half.

Some results are limits rather than exact numbers.

In experiment [1] the target is T1, eIF-2-alpha kinase GCN2 (Homo sapiens, UniProt Q9P2K8). Description: Inhibition of GCN2 (unknown origin) using GFP-elF2a as substrate preincubated with substrate for 20 mins measured after 90 mins by Lanthascreen assay.
T1 sequence (Q9P2K8 whole entry): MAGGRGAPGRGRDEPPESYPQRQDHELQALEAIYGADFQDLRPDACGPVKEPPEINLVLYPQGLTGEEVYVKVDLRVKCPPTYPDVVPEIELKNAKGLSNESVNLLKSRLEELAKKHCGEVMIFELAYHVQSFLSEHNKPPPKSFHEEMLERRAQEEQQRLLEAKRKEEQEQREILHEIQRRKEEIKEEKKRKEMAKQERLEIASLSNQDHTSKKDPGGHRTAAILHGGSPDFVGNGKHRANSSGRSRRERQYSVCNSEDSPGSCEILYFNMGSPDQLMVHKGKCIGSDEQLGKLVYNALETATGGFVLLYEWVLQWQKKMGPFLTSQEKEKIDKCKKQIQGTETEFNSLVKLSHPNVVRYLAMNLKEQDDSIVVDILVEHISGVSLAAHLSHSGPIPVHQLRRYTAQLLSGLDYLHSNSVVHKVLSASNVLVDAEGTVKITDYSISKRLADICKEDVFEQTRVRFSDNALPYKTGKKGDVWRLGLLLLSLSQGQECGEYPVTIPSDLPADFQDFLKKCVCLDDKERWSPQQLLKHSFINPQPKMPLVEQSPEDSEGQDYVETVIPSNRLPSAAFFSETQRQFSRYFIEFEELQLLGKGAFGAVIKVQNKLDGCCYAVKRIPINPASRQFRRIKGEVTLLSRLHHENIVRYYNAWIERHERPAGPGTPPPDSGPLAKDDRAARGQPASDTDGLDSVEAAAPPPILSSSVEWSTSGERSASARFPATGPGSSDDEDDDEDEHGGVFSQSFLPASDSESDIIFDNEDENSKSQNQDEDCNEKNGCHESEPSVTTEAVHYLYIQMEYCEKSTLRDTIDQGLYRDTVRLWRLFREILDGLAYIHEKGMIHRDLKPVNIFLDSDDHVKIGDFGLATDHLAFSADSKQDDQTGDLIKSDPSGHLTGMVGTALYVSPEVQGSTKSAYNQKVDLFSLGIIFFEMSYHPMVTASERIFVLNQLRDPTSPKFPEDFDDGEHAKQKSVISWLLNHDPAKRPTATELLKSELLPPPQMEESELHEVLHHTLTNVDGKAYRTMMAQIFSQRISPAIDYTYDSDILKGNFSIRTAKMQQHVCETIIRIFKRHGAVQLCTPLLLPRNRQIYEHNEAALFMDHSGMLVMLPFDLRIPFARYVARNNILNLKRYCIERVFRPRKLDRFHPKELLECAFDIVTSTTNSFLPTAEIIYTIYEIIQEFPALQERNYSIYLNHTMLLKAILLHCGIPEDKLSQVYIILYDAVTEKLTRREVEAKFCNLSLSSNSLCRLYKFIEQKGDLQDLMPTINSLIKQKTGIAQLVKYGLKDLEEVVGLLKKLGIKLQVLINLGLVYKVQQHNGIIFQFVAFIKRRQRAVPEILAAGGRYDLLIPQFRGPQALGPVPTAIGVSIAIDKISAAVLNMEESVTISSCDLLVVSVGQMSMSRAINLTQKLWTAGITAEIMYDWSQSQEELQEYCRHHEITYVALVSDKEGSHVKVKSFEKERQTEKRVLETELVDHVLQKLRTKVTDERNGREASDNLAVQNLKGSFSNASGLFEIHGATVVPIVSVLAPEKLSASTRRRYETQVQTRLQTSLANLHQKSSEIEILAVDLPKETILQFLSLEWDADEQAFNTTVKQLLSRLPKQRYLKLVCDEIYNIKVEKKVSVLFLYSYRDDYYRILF
For experiment [2], the target named is T1, eIF-2-alpha kinase GCN2. Put plainly: Inhibition of GCN2-mediated elF2alpha phosphorylation in human U2OS cells after 2 hrs by immunocytochemistry. The class given is cell-based.

On to `O[C@H]1CC[C@H](n2ccc(Nc3ncc4c(nnn4-c4ccc(Cl)c(F)c4)n3)n2)CC1`, for which the concentration for half-maximal inhibition (IC50) in experiment [1] and in experiment [2] was under 0.3 µM throughout.

For `CCn1ccc(Nc2ncc3c(nnn3-c3ccc(C(C)(C)OCCO)cc3)n2)n1`, the values for the IC50 in experiment [1] and in experiment [2] were under 0.3 µM and 0.3 µM, respectively.

Take `c1cc2cn[nH]c2cc1-n1nnc2nc(Nc3ccn(C4CCOCC4)n3)ncc21`: the concentration for half-maximal inhibition (IC50) in experiment [1] and in experiment [2] was under 0.3 µM in each case.

`CCOc1ccc(-n2nnc3nc(Nc4ccn(CCCC5CCNCC5)n4)ncc32)cc1`: the IC50 in experiment [1] and in experiment [2] was under 0.3 µM each time.
